Laboratory results taken from US9790221B2, “Heteroaryl compounds as IRAK inhibitors and uses thereof” (Merck Patent GmbH, priority 2014, dated 2017).
Structures can show the parent of a compound that is named as a salt.

What was measured:
[1] = molecular target: IRAK4 (Homo sapiens (Human), UniProt Q9NWZ3); experiment: IRAK4 enzymatic assay; format: biochemical
Procedure, shortened: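 Radiometric streptavidin FlashPlate read: 3 h, 30° C incubation of His-TEV-IRAK4 (20 ng/well), STK1-biotin substrate (300 nM) and ATP (2 μM, [^33P]-labelled) in Hepes pH 7.0, MgCl2 10 mM, MnCl2 5 mM. Compounds from 20 µM down to 1 nM, 2% DMSO controls; reaction quenched with EDTA.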

[2] = test system: TLR7 induced IL-6 secretion in human mononuclear cells (PBMC's); experiment: TLR7 induced IL-6 in human PBMC's; format: cell-based; conditions: Homo sapiens, PBMC, read-out: TLR7 induced IL-6 secretion in hPBMC's (IC50)
Procedure, shortened: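 Fresh or frozen healthy-donor PBMCs preincubated 30 min at 37° C. with compound (25 uM to 0.4 nM; vehicle 0.25% DMSO) in RPMI/10% HI-FBS. Stimulated with TLR7 ligand (2 uM) for 16-18 h at 37° C.; supernatant IL-6 measured by AlphaLISA.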

[3] = molecular target: IRAK1 (His-TEV-IRAK1 (194-712)) (Homo sapiens (Human), UniProt P51617); experiment: IRAK1 enzymatic assay; format: biochemical
Procedure, shortened: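 Compounds ([…] down to 1 nM) were incubated 3 h at 30° C with His-TEV-IRAK1 (194-712, 15 ng/well) and 1 μM [33P]-labelled ATP in 50 mM Hepes pH 7.0, 10 mM MgCl2. After EDTA stop and washing, the retained autophosphorylation signal was measured by scintillation in streptavidin-coated plates.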

Chain of IRAK1 (His-TEV-IRAK1 (194-712)) (P51617 194-712): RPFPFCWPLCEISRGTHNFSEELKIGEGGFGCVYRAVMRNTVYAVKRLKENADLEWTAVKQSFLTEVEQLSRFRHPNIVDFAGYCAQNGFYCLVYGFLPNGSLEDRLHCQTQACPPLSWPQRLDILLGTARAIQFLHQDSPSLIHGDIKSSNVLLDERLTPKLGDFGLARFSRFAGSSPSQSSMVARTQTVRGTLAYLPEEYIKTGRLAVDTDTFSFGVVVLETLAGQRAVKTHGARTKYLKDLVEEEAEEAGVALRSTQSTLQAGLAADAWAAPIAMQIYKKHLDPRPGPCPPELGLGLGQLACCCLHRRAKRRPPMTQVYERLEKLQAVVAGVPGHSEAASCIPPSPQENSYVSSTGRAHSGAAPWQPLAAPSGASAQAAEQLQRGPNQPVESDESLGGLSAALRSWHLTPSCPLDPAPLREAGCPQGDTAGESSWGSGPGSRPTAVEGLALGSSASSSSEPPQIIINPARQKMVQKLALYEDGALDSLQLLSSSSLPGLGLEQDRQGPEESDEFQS
Chain of IRAK4 (Q9NWZ3 whole entry): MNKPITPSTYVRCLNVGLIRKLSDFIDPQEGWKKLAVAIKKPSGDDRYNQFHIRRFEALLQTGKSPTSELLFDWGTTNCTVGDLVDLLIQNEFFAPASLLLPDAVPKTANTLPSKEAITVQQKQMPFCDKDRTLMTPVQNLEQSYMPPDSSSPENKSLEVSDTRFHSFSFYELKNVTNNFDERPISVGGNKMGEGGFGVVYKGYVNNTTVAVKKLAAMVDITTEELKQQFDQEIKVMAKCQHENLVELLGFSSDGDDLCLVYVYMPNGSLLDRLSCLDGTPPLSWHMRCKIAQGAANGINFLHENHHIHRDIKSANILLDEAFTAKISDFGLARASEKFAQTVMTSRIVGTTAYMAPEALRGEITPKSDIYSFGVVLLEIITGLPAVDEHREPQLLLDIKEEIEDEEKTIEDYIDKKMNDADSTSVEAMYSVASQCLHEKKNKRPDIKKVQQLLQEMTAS

Row | IC50 [1] | IC50 [3] | SMILES | IC50 [2]
1 | < 0.1 µM | 0.1 to 1 µM | Cn1cc(-c2cccc(-c3ncc(-c4cnn(C)c4)c(NCC4CCCOC4)n3)c2)cn1 (stereo not drawn) [Example 217] | 1 to 5 µM
2 | 0.1 to 1 µM | 0.1 to 1 µM | Cn1cc(-c2cccc(-c3ncc(-c4cnn(C)c4)c(NCC4(C)CCC4)n3)c2)cn1 [Example 43] | 1 to 5 µM
3 | < 0.1 µM | < 0.1 µM | Cc1nnc(-c2cnc(-c3cccc(-c4cnn(C)c4)c3)nc2NC2CCCN(S(C)(=O)=O)CC2)s1 (stereo not drawn) [Example 253] | 0.1 to 1 µM
4 | < 0.1 µM | < 0.1 µM | Cc1nnc(-c2cnc(-c3cccc(-c4cnn(C)c4)c3)nc2NC2CCC(NS(=O)(=O)C3CC3)CC2)s1 (stereo not drawn) [Example 209] | 0.1 to 1 µM
5 | < 0.1 µM | 0.1 to 1 µM | Cn1cc(-c2cccc(-c3ncc(-c4cnn(C)c4)c(NCC4(O)COC4)n3)c2)cn1 [Example 52] | 1 to 5 µM
6 | 0.1 to 1 µM | 1 to 5 µM | CN(CC1CC(F)(F)C1)c1nc(-c2cccc(-c3cnn(C)c3)c2)ncc1-c1cnn(C)c1 [Example 141] | 1 to 5 µM
7 | 0.1 to 1 µM | 1 to 5 µM | Cn1cc(-c2cccc(-c3ncc(-c4cnn(C)c4)c(OCC4(C)COC4)n3)c2)cn1 [Example 9, 4-(3-Methyl-oxetan-3-ylmethoxy)-5-(1-methyl-1H-pyrazol-4-yl)-2-[3-(1-methyl-1H-pyrazol-4-yl)-phenyl]-pyrimidine] | 1 to 5 µM
8 | 0.1 to 1 µM | > 5 µM | Cn1cc(-c2cccc(-c3ccc(-c4cnn(C5CCNCC5)c4)cn3)c2)cn1 [Example 1, 2-[3-(1-Methyl-1H-pyrazol-4-yl)-phenyl]-5-(1-piperidin-4-yl-1H-pyrazol-4-yl)-pyridine Hydrochloride] | 1 to 5 µM
9 | < 0.1 µM | > 5 µM | Cc1nnc(-c2cnc(-c3cccc(-c4cnn(C)c4)c3)nc2NCCN2CCS(=O)(=O)CC2)s1 [Example 127] | 0.1 to 1 µM
10 | 0.1 to 1 µM | > 5 µM | Cn1cc(-c2cccc(-c3ncc(-c4ccn(C)n4)c(NCC4CNCCO4)n3)c2)cn1 (stereo not drawn) [Example 115] | 0.1 to 1 µM
11 | < 0.1 µM | 0.1 to 1 µM | Cn1cc(-c2cccc(-c3ncc(-c4cnn(C)c4)c(N[C@H]4CCC[C@H](O)[C@@H]4O)n3)c2)cn1 [Example 208, (1S,2R,3S)-3-{5-(1-Methyl-1H-pyrazol-4-yl)-2-[3-(1-methyl-1H-pyrazol-4-yl)-phenyl]-pyrimidin-4-ylamino}-cyclohexane-1,2-diol] | 0.1 to 1 µM
12 | 0.1 to 1 µM | 0.1 to 1 µM | Cn1cc(-c2cccc(-c3ncc(-c4cnn(C)c4)c(N[C@H]4C[C@@H](O)C4)n3)c2)cn1 [Example 46] | > 5 µM
13 | < 0.1 µM | 1 to 5 µM | Cn1cc(-c2cccc(-c3ncc(-c4cnn(C)c4)c(N4C[C@@H](N)CC(F)(F)C4)n3)c2)cn1 [Example 284, (S)-5,5-Difluoro-1-{5-(1-methyl-1H-pyrazol-4-yl)-2-[3-(1-methyl-1H-pyrazol-4-yl)-phenyl]-pyrimidin-4-yl}-piperidin-3-ylamine] | 0.1 to 1 µM
14 | < 0.1 µM | 0.1 to 1 µM | Cn1cc(-c2cccc(-c3ncc(-c4cnn(C)c4)c(NC4CCCC4O)n3)c2)cn1 (stereo not drawn) [Example 238] | 0.1 to 1 µM
15 | < 0.1 µM | < 0.1 µM | Cn1cc(-c2cccc(-c3ncc(-c4cnn(C)c4)c(N[C@H]4CC[C@H](NS(C)(=O)=O)C4)n3)c2)cn1 [Example 190] | 1 to 5 µM
16 | < 0.1 µM | 0.1 to 1 µM | CC(C)Nc1nc(-c2cccc(-c3cnn(C)c3)c2)ncc1-c1nnc(C2CCNCC2)s1 [Example 210] | 0.1 to 1 µM
17 | < 0.1 µM | 0.1 to 1 µM | Cn1cc(-c2cccc(-c3ncc(-c4ccn(C)n4)c(NC4C5CCCC4CC(N)C5)n3)c2)cn1 (stereo not drawn) [Example 152] | 0.1 to 1 µM
18 | 0.1 to 1 µM | 0.1 to 1 µM | CC(=O)NCCNc1nc(-c2cccc(-c3cnn(C)c3)c2)ncc1-c1cnn(C)c1 [Example 57] | > 5 µM
19 | < 0.1 µM | 1 to 5 µM | CN1CCC(CNc2nc(-c3cccc(-c4cnn(C)c4)c3)ncc2-c2cnn([C@H]3CC[C@]4(CCC(=O)N4C)CC3)c2)CC1 [Example 87, 1-Methyl-8-(4-{4-[(1-methyl-piperidin-4-ylmethyl)-amino]-2-[3-(1-methyl-1H-pyrazol-4-yl)-phenyl]-pyrimidin-5-yl}-pyrazol-1-yl)-1-aza-spiro[4.5]decan-2-one] | 1 to 5 µM

Row | IC50 [1] | IC50 [3] | SMILES | IC50 [2]
20 | < 0.1 µM | 0.1 to 1 µM | Cn1cc(-c2cccc(-c3ncc(-c4cnn(C)c4)c(N[C@H]4CCC[C@H](F)[C@H]4O)n3)c2)cn1 (single isomer, unassigned) [Example 285] | 0.1 to 1 µM
21 | < 0.1 µM | < 0.1 µM | Cn1cc(-c2cccc(-c3ncc(-c4cnn(C)c4)c(N[C@H]4CC[C@H](NS(C)(=O)=O)CC4)n3)c2)cn1 [Example 182] | 0.1 to 1 µM
22 | 0.1 to 1 µM | > 5 µM | Cn1cc(-c2cccc(-c3ncc(-c4cnn(C)c4)c(N[C@H]4CC[C@H](C(=O)O)CC4)n3)c2)cn1 [Example 279] | > 5 µM
23 | < 0.1 µM | 1 to 5 µM | Cn1cc(-c2cccc(-c3ncc(-c4cnn(C)c4)c(NCCCCO)n3)c2)cn1 [Example 101] | 0.1 to 1 µM
24 | < 0.1 µM | 0.1 to 1 µM | Cn1cc(-c2cccc(-c3ncc(-c4cnn(C)c4)c(N4CCC(CNS(C)(=O)=O)C4)n3)c2)cn1 (stereo not drawn) [Example 265] | > 5 µM
25 | < 0.1 µM | < 0.1 µM | Cn1cc(-c2cccc(-c3ncc(-c4cnn(C)c4)c(N[C@H]4CCC[C@@H](O)[C@H]4O)n3)c2)cn1 [Example 268] | < 0.1 µM
26 | < 0.1 µM | 0.1 to 1 µM | Cn1cc(-c2cccc(-c3ncc(-c4cnn(C)c4)c(N4CCC(O)CC4)n3)c2)cn1 [Example 219] | 1 to 5 µM
27 | < 0.1 µM | 0.1 to 1 µM | Cn1cc(-c2cccc(-c3ncc(-c4cnn(C)c4)c(NCCC(C)(C)O)n3)c2)cn1 [Example 135] | 0.1 to 1 µM
28 | 1 to 5 µM | 1 to 5 µM | Cn1cc(-c2cccc(-c3ncc(-c4cnn(C)c4)c(N4C[C@H](N)CC(F)(F)C4)n3)c2)cn1 [Example 283, (R)-5,5-Difluoro-1-{5-(1-methyl-1H-pyrazol-4-yl)-2-[3-(1-methyl-1H-pyrazol-4-yl)-phenyl]-pyrimidin-4-yl}-piperidin-3-ylamine] | 1 to 5 µM
29 | < 0.1 µM | 0.1 to 1 µM | Cn1cc(-c2cccc(-c3ncc(-c4cnn(C)c4)c(NCC4COC4)n3)c2)cn1 [Example 63] | 1 to 5 µM
30 | < 0.1 µM | 0.1 to 1 µM | Cn1cc(-c2cccc(-c3ncc(-c4cnn(C)c4)c(NC45CC(CN)(C4)C5)n3)c2)cn1 [Example 242] | 0.1 to 1 µM
31 | 0.1 to 1 µM | 0.1 to 1 µM | Cn1cc(-c2cccc(-c3ncc(-c4cnn(C)c4)c(NCC4CC(F)(F)C4)n3)c2)cn1 [Example 42] | 0.1 to 1 µM
32 | < 0.1 µM | 0.1 to 1 µM | CC(C)Nc1cc(-c2cccc(-c3cnn(C)c3)n2)ncc1-c1nnc(C(=O)N2CC[C@@H](O)C2)s1 [Example 22, ((R)-3-Hydroxy-pyrrolidin-1-yl)-{5-[4-isopropylamino-6′-(1-methyl-1H-pyrazol-4-yl)-[2,2′]bipyridinyl-5-yl]-[1,3,4]thiadiazol-2-yl}-methanone] | 0.1 to 1 µM
33 | 1 to 5 µM | 0.1 to 1 µM | Cn1cc(-c2cccc(-c3ncc(-c4nnc(C(=O)N5CC[C@@H](O)C5)s4)c(NC4CCCNC4)n3)c2)cn1 (stereo partly drawn) [Example 20, ((R)-3-Hydroxy-pyrrolidin-1-yl)-{5-[2-[3-(1-methyl-1H-pyrazol-4-yl)-phenyl]-4-(piperidin-3-ylamino)-pyrimidin-5-yl]-[1,3,4]thiadiazol-2-yl}-methanone Hydrochloride] | 0.1 to 1 µM
34 | < 0.1 µM | > 5 µM | Cc1nnc(-c2cnc(-c3cccc(-c4cnn(C)c4)c3)nc2NC2CCCNC2)s1 (stereo not drawn) [Example 17, [2-[3-(1-Methyl-1H-pyrazol-4-yl)-phenyl]-5-(5-methyl-[1,3,4]thiadiazol-2-yl)-pyrimidin-4-yl]-piperidin-3-yl-amine Hydrochloride] | 0.1 to 1 µM
35 | < 0.1 µM | 0.1 to 1 µM | Cn1cc(-c2cccc(-c3ncc(-c4cnn(C)c4)c(NCC4(NS(C)(=O)=O)CCCCC4)n3)c2)cn1 [Example 262] | 1 to 5 µM
36 | 0.1 to 1 µM | 0.1 to 1 µM | Cn1cc(-c2cccc(-c3ncc(-c4ccn(C)n4)c(NCC4CCCNC4)n3)c2)cn1 (stereo not drawn) [Example 10, {5-(1-Methyl-1H-pyrazol-3-yl)-2-[3-(1-methyl-1H-pyrazol-4-yl)-phenyl]-pyrimidin-4-yl}-piperidin-3-ylmethyl-amine] | 1 to 5 µM
37 | < 0.1 µM | 0.1 to 1 µM | Cc1nnc(-c2cnc(-c3cccc(-c4cnn(C)c4)c3)nc2N[C@H]2CC[C@@H](NS(C)(=O)=O)CC2)s1 [Example 129] | 0.1 to 1 µM
38 | < 0.1 µM | 0.1 to 1 µM | Cn1cc(-c2cccc(-c3ncc(-c4cnn(C)c4)c(NCCCNS(C)(=O)=O)n3)c2)cn1 [Example 179] | 1 to 5 µM
